Assay results from ChEMBL document CHEMBL3044988, “QSAR analysis of B-ring-modified diaryl ether derivatives as a InhA inhibitors” (Med Chem Res, 2012).

biological target: T1, Enoyl-[acyl-carrier-protein] reductase [NADH] (Mycobacterium tuberculosis, UniProt P9WGR1); settings: not given
T1 sequence (P9WGR1 whole entry): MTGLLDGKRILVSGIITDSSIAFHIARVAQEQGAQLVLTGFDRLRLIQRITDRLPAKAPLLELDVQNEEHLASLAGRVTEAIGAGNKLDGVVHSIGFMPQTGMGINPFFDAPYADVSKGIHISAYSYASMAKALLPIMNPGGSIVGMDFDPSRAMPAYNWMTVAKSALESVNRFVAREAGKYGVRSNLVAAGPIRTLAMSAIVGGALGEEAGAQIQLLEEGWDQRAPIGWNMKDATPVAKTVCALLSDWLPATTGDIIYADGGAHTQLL

Row | Structure (SMILES) | IC50 [nM]
1 | CCCCCCc1ccc(Oc2cccc(NC(C)=O)c2)c(O)c1 | 579

tested on: not listed separately; test: Partition coefficient, log P of the compound; format: physicochemical; settings: octanol/water

Row | Structure (SMILES) | logP
2 | CCCCCCc1ccc(Oc2ccccc2[N+](=O)[O-])c(O)c1 | 4.489
3 | CCCCCCc1ccc(Oc2ccc([N+](=O)[O-])cc2)c(O)c1 | 4.489

same assay, conditions: octanol/water; read-out: logP

Row | Structure (SMILES) | logP
4 | CCCCCCc1ccc(Oc2ncccn2)c(O)c1 | 4.13
5 | CCCCCCc1ccc(Oc2cnccn2)c(O)c1 | 4.12
6 | CCCCCCc1ccc(Oc2ccncc2)c(O)c1 | 4.33
7 | CCCCCCc1ccc(Oc2ccc(NC(=O)c3ccno3)cc2)c(O)c1 | 4.86
8 | CCCCCCc1ccc(Oc2ccc(CN3CCN(C)CC3)cc2)c(O)c1 | 5.33
9 | CCCCCCc1ccc(Oc2ccc(NC(=O)C(=O)O)cc2)c(O)c1 | 5.59
10 | CCCCCCc1ccc(Oc2ccc(NC(C)=O)cc2)c(O)c1 | 5
11 | CCCCCCc1ccc(Oc2ccc(N)cc2)c(O)c1 | 4.42
12 | CCCCCCc1ccc(Oc2ccccc2NC(C)=O)c(O)c1 | 5
13 | CCCCCCc1ccc(Oc2cccc([N+](=O)[O-])c2)c(O)c1 | 4.49
14 | CCCCCCc1ccc(Oc2ccccc2N)c(O)c1 | 4.42
15 | CCCCCCc1ccc(Oc2ccccn2)c(O)c1 | 5.03
16 | CCCCCCc1ccc(Oc2ccccc2)c(O)c1 | 5.64
17 | CCCCCCc1ccc(Oc2cccc(NC(C)=O)c2)c(O)c1 | 5
18 | CCCCCCc1ccc(Oc2cccc(N)c2)c(O)c1 | 4.42
19 | CCCCCCc1ccc(Oc2cccc(NC(=O)c3ccno3)c2)c(O)c1 | 4.86
20 | CCCCCCc1ccc(Oc2cccnc2)c(O)c1 | 4.33
21 | CCCCCCc1ccc(Oc2ccccc2CN2CCN(C)CC2)c(O)c1 | 5.33
22 | CCCCCCc1ccc(Oc2ccccc2NC(=O)c2ccno2)c(O)c1 | 4.86
